Consider 24 molecules from patent publication US9561228B2 (Celgene Avilomics Research, Inc., priority 2013, dated 2017).

In assay [1] the test system is ERK1/2 phosphorylation of p90RSK in A375 cells. The experiment in a line: Detection of total and phosphor-RSK by MSD ELISA (A375). Format: cell-based. As to conditions: Homo sapiens, A-375, read-out: ERK1/ERK2 PRSK A375 EC50. The method in brief:
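A375 cells serum-starved overnight in DMEM/0.1% FBS, then treated 2 h at 37° C with compound (1000× DMSO dilutions into medium). Lysates captured on RSK antibody-coated MSD plates; phospho-RSK (Ser380) and total RSK detected with SulfoTag secondary antibodies by electrochemiluminescence.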
On the technique in general: In an ELISA, binding on a coated surface is turned into a signal by an enzyme label.

Assay [2] relates to ERK1/2 phosphorylation of p90RSK in HT29 cells. Nature of the assay: pRSK MSD Assay in HT29 cells. Format: cell-based. As to conditions: Homo sapiens, HT-29, read-out: ERK1/ERK2 PRSK MSD HT29 EC50. In outline: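 Serum-starved HT29 cells (0.1% FBS overnight) treated with test compound for 120 min at 37° C, then lysed with protease and phosphatase inhibitors. Phospho-p90RSK quantified by MSD sandwich immunoassay: RSK capture antibody, phospho-RSK detection antibody plus Sulfo-tagged antibody, electrochemiluminescence read.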

Each structure is given as a SMILES string. Bounds are passed on as bounds.

For the molecule `C=CC(=O)Nc1cc(CN2CCN(C(=O)c3cnccn3)CC2)ccc1Nc1nc(Nc2nc(OC)ncc2C)ncc1C(F)(F)F` [Compound I-393, N-(2-((2-((2-methoxy-5-methylpyrimidin-4-yl)amino)-5-(trifluoromethyl)pyrimidin-4-yl)amino)-5-((4-(pyrazine-2-carbonyl)piperazin-1-yl)methyl)phenyl)acrylamide], the figures for the EC50 in assay [1] and in assay [2] were greater than 1000 nM and 501 to 999 nM, respectively.
The matching figures for `C=CC(=O)Nc1cc(C)ccc1Nc1nc(Nc2nc(OC)ncc2C#N)ncc1C(F)(F)F` [Compound I-346, N-(2-((2-((5-cyano-2-methoxypyrimidin-4-yl)amino)-5-(trifluoromethyl)pyrimidin-4-yl)amino)-5-methylphenyl)acrylamide]: 101 to 500 nM and 101 to 500 nM.
The matching figures for `C=CC(=O)Nc1ccc(OCC(N)=O)cc1Nc1nc(NC2CCOCC2)ncc1C(F)(F)F` [Compound I-395, N-(4-(2-amino-2-oxoethoxy)-2-((2-((tetrahydro-2H-pyran-4-yl)amino)-5-(trifluoromethyl)pyrimidin-4-yl)amino)phenyl)acrylamide]: greater than 1000 nM and greater than 1000 nM.
The matching figures for `C=CC(=O)Nc1cc(CN2CCN(C(=O)CO)CC2)ccc1Nc1nc(Nc2cc(OC)ncc2C)ncc1C(F)(F)F` [Compound I-385, N-(5-((4-(2-hydroxyacetyl)piperazin-1-yl)methyl)-2-((2-((2-methoxy-5-methylpyridin-4-yl)amino)-5-(trifluoromethyl)pyrimidin-4-yl)amino)phenyl)acrylamide]: less than 100 nM and less than 100 nM.
With `C=CC(=O)Nc1cc(C)ccc1Nc1nc(Nc2cc(NCCOC)nc(OC)c2)ncc1C(F)(F)F` [Compound I-294, N-(2-((2-((2-methoxy-6-((2-methoxyethyl)amino)pyridin-4-yl)amino)-5-(trifluoromethyl)pyrimidin-4-yl)amino)-5-methylphenyl)acrylamide], the EC50 in assay [1] and in assay [2] was less than 100 nM each time.
Take `C=CC(=O)Nc1cc(C)ccc1Nc1nc(Nc2nc(O)ncc2C)ncc1C(F)(F)F` [Compound I-364, N-(2-((2-((2-hydroxy-5-methylpyrimidin-4-yl)amino)-5-(trifluoromethyl)pyrimidin-4-yl)amino)-5-methylphenyl)acrylamide]: the EC50 in assay [1] and in assay [2] was less than 100 nM in each case.
Turning to `C=CC(=O)Nc1cc(C)ccc1Nc1nc(Nc2cc(-c3c[nH]cn3)ccc2C)ncc1C(F)(F)F` [Compound I-378, N-(2-((2-((5-(1H-imidazol-4-yl)-2-methylphenyl)amino)-5-(trifluoromethyl)pyrimidin-4-yl)amino)-5-methylphenyl)acrylamide], the EC50 is 501 to 999 nM in assay [1] and 101 to 500 nM in assay [2].
The matching figures for `C=CC(=O)Nc1cc(C)ccc1Nc1nc(NC2CCC(=O)NC2)ncc1C(F)(F)F` (racemic) [Compound I-368, Rac-N-(5-methyl-2-((2-((6-oxopiperidin-3-yl)amino)-5-(trifluoromethyl)pyrimidin-4-yl)amino)phenyl)acrylamide]: greater than 1000 nM and 501 to 999 nM.
For the molecule `C=CC(=O)Nc1cc(C)ccc1Nc1nc(NCC2COC2)ncc1C(F)(F)F` [Compound I-417, N-(5-methyl-2-((2-((oxetan-3-ylmethyl)amino)-5-(trifluoromethyl)pyrimidin-4-yl)amino)phenyl)acrylamide], the EC50 in assay [1] and in assay [2] was greater than 1000 nM each time.
Regarding `C=CC(=O)Nc1cc(C)c(F)cc1Nc1nc(Nc2nc(OC)ncc2Cl)ncc1C(F)(F)F` [Compound I-374, N-(2-((2-((5-chloro-2-methoxypyrimidin-4-yl)amino)-5-(trifluoromethyl)pyrimidin-4-yl)amino)-4-fluoro-5-methylphenyl)acrylamide], the EC50 in assay [1] and in assay [2] was less than 100 nM throughout.
Take `C=CC(=O)Nc1cc(CN2CCN(C(C)=O)C[C@H]2C)ccc1Nc1nc(Nc2cc(OC)ncc2C)ncc1C(F)(F)F` [Compound I-422, (R)—N-(5-((4-acetyl-2-methylpiperazin-1-yl)methyl)-2-((2-((2-methoxy-5-methylpyridin-4-yl)amino)-5-(trifluoromethyl)pyrimidin-4-yl)amino)phenyl)acrylamide]: the EC50 in assay [1] and in assay [2] was 101 to 500 nM in each case.
As for `C=CC(=O)Nc1cc(C)ccc1Nc1nc(Nc2nc(OC)ncc2C)ncc1C(F)(F)F` [Compound I-347, N-(2-((2-((2-methoxy-5-methylpyrimidin-4-yl)amino)-5-(trifluoromethyl)pyrimidin-4-yl)amino)-5-methylphenyl)acrylamide], the EC50 in assay [1] was 101 to 500 nM; in assay [2], less than 100 nM.
The like results for `C=CC(=O)Nc1cc(CN2CCN(C(=O)c3cccnc3)CC2)ccc1Nc1nc(Nc2cc(OC)ncc2C)ncc1C(F)(F)F` [Compound I-389, N-(2-((2-((2-methoxy-5-methylpyridin-4-yl)amino)-5-(trifluoromethyl)pyrimidin-4-yl)amino)-5-((4-nicotinoylpiperazin-1-yl)methyl)phenyl)acrylamide] were, in that order, less than 100 nM and less than 100 nM.
The matching figures for `C=CC(=O)Nc1cc(C)ccc1Nc1nc(Nc2cc(OC)ncc2CC)ncc1C(F)(F)F` [Compound I-408, N-(2-((2-((5-ethyl-2-methoxypyridin-4-yl)amino)-5-(trifluoromethyl)pyrimidin-4-yl)amino)-5-methylphenyl)acrylamide]: 101 to 500 nM and 101 to 500 nM.
The like results for `C=CC(=O)Nc1cc(CN2CCN(C(C)=O)CC2)ccc1Nc1nc(Nc2nc(OC)ncc2C)ncc1C(F)(F)F` [Compound I-382, N-(5-((4-acetylpiperazin-1-yl)methyl)-2-((2-((2-methoxy-5-methylpyrimidin-4-yl)amino)-5-(trifluoromethyl)pyrimidin-4-yl)amino)phenyl)acrylamide] were, in that order, greater than 1000 nM and 101 to 500 nM.
For the molecule `C=CC(=O)Nc1cc(C)ccc1Nc1nc(Nc2cc(OC)ncc2Cl)ncc1C(F)(F)F` [Compound I-351, N-(2-((2-((5-chloro-2-methoxypyridin-4-yl)amino)-5-(trifluoromethyl)pyrimidin-4-yl)amino)-5-methylphenyl)acrylamide], the EC50 in assay [1] and in assay [2] was 101 to 500 nM each time.
For the molecule `C=CC(=O)Nc1cc(C)ccc1Nc1nc(Nc2cc(OC(C)C)ncc2C)ncc1C(F)(F)F` [Compound I-369, N-(2-((2-((2-isopropoxy-5-methylpyridin-4-yl)amino)-5-(trifluoromethyl)pyrimidin-4-yl)amino)-5-methylphenyl)acrylamide], the EC50 in assay [1] and in assay [2] was greater than 1000 nM each time.
For `C=CC(=O)Nc1cc(CCc2cnn(C)c2)ccc1Nc1nc(Nc2cc(OC)ncc2C)ncc1C(F)(F)F` [Compound I-427, N-(2-((2-((2-methoxy-5-methylpyridin-4-yl)amino)-5-(trifluoromethyl)pyrimidin-4-yl)amino)-5-(2-(1-methyl-1H-pyrazol-4-yl)ethyl)phenyl)acrylamide], the EC50 in assay [1] and in assay [2] was 101 to 500 nM throughout.
`C=CC(=O)Nc1cc(OCC(=O)N2CCN(C(C)=O)CC2)ccc1Nc1nc(Nc2cc(OC)ncc2OC)ncc1C(F)(F)F` [Compound I-415, N-(5-(2-(4-acetylpiperazin-1-yl)-2-oxoethoxy)-2-((2-((2,5-dimethoxypyridin-4-yl)amino)-5-(trifluoromethyl)pyrimidin-4-yl)amino)phenyl)acrylamide]: the EC50 in assay [1] and in assay [2] was 501 to 999 nM in each case.
As to `C=CC(=O)Nc1cc(C)ccc1Nc1nc(Nc2cc(C(=O)NC)nn2C)ncc1C(F)(F)F` [Compound I-424, 5-((4-((2-acrylamido-4-methylphenyl)amino)-5-(trifluoromethyl)pyrimidin-2-yl)amino)-N,1-dimethyl-1H-pyrazole-3-carboxamide], the figures for the EC50 in assay [1] and in assay [2] were 501 to 999 nM and 101 to 500 nM, respectively.
The like results for `C=CC(=O)Nc1cc(CN2CCN(C(=O)c3ccccn3)CC2)ccc1Nc1nc(Nc2cc(OC)ncc2C)ncc1C(F)(F)F` [Compound I-388, N-(2-((2-((2-methoxy-5-methylpyridin-4-yl)amino)-5-(trifluoromethyl)pyrimidin-4-yl)amino)-5-((4-picolinoylpiperazin-1-yl)methyl)phenyl)acrylamide] were, in that order, less than 100 nM and less than 100 nM.
The like results for `C=CC(=O)Nc1cc(CN2CCN(C(=O)CO)CC2)ccc1Nc1nc(Nc2nc(OC)ncc2C)ncc1C(F)(F)F` [Compound I-386, N-(5-((4-(2-hydroxyacetyl)piperazin-1-yl)methyl)-2-((2-((2-methoxy-5-methylpyrimidin-4-yl)amino)-5-(trifluoromethyl)pyrimidin-4-yl)amino)phenyl)acrylamide] were, in that order, greater than 1000 nM and 501 to 999 nM.
The like results for `C=CC(=O)Nc1cc(C)ccc1Nc1nc(Nc2cc(C(=O)OC)nn2C)ncc1C(F)(F)F` [Compound I-418, Methyl 5-((4-((2-acrylamido-4-methylphenyl)amino)-5-(trifluoromethyl)pyrimidin-2-yl)amino)-1-methyl-1H-pyrazole-3-carboxylate] were, in that order, 501 to 999 nM and 501 to 999 nM.
As to `C=CC(=O)Nc1cc(C)ccc1Nc1nc(Nc2cnc(OC)cc2C)ncc1C(F)(F)F` [Compound I-350, N-(2-((2-((6-methoxy-4-methylpyridin-3-yl)amino)-5-(trifluoromethyl)pyrimidin-4-yl)amino)-5-methylphenyl)acrylamide], the EC50 in assay [1] and in assay [2] was greater than 1000 nM in each case.
